Our source for the IC50 values is US20050245563A1 (Millennium Pharmaceuticals, Inc., priority 2003, published 2005).

In the experiment the target is T1, human Chk1 (GST-Chk1) (Homo sapiens, UniProt O14757).
T1 construct: made in house; host or cells: insect cells (baculovirus, Bac-to-Bac)
T1 sequence (O14757 1-476): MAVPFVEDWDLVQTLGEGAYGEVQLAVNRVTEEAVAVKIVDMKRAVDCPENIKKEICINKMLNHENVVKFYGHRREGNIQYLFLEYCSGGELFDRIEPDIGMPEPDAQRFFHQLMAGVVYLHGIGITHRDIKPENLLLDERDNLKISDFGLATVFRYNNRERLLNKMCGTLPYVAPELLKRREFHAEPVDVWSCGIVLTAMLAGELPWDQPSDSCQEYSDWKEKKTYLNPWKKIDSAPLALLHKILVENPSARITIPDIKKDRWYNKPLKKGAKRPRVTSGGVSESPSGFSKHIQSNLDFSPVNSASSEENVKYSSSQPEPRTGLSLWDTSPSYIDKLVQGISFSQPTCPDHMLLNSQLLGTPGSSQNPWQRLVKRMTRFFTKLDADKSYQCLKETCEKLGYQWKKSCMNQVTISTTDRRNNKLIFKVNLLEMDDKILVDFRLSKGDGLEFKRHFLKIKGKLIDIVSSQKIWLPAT
The experiment is described as follows: Chk1 DELFIA kinase assay (2 nM GST-Chk1, 600 μM ATP). It is filed as biochemical. The settings on record: Biotin-GLYRSPSMPEN-amide substrate. As to the method:
Recombinant human Chk1 was expressed as a fusion protein with glutathione S-transferase at the amino-terminus (GST-Chk1) using standard baculovirus vectors and (Bac-to-Bac®) insect cell expression system purchased from GIBCO™ Invitrogen. Recombinant protein expressed in insect cells was purified using glutathione sepharose (Amersham Biotech) using standard procedures described by the manufacturer.
Chk1 DELFIA® Kinase Assay:
Assays (25 μL) utilized 2 nM GST-Chk1 containing 10 mM Tris, pH 7.5, 20% glycerol, 50 mM sodium chloride (NaCl), 0.01% Surfact-Amps® 20, 1 μM peptide stubstrate (Biotin-GLYRSPSMPEN-amide) (SEQ ID NO: 3), 01.% BSA, 2 mM DTT, 4% DMSO, 600 μM ATP, 10 MM MgCl2 and reacted for 50 minutes at room temperature. Reactions were terminated with 100 μL of Stop buffer containing 1% BSA, 10 mM Tris, pH 8.0, 150 mM NaCl, 100 mM EDTA. Stopped reactions (100 μL) were transferred to 96 well NeutrAvidin plates (Pierce) to capture the biotin-peptide substrate during a 30 minute room temperature incubation. Wells were washed and reacted with 100 μL PerkinElmer Wallac Assay Buffer containing 21.5 ng/ml anti-phospho-Ser216-Cdc25c rabbit polyclonal antibody from Cell Signaling Technology (Beverly, Mass.) and 292 ng/ml europium labeled anti-rabbit-IgG for 1 hour at room temperature. Wells were washed and europium released from the bound antibody by addition of Enhancement Solution (100 μL) (PerkinElmer Wallac) and detected using a Perkin Elmer Wallac Envison™ 2100 multilabel reader using standard manufacturer settings.

As for `Cc1[nH]nc2c1c(=O)n(C[C@H](C)CN)c1ccc(F)cc21` (stereo in doubt) [Compound 202, 5-(3-Amino-2-methyl-propyl)-8-fluoro-3-methyl-2,5-dihydro-pyrazolo[4,3-c]quinolin-4-one], the IC50 (usually the concentration that inhibits the measured activity by half) is < 1000 nM.

As for `Cc1[nH]nc2c1c(=O)n(CCCN)c1ccc(F)cc21` [Compound 203, 5-(3-Amino-propyl)-8-fluoro-3-methyl-2,5-dihydro-pyrazolo[4,3-c]quinolin-4-one], the IC50 was < 1000 nM.

As to `COCCc1[nH]nc2c1c(=O)n(CCCN)c1ccc(F)cc21` [Compound 205, 5-(3-Amino-propyl)-8-fluoro-3-(2-methoxy-ethyl)-2,5-dihydro-pyrazolo[4,3-c]quinolin-4-one], the half-inhibitory concentration (IC50) is < 1000 nM.

Regarding `COCCc1[nH]nc2c1c(=O)n(CCCN)c1ccc(Cl)cc21` [Compound 206, 5-(3-Amino-propyl)-8-chloro-3-(2-methoxyethyl)-2,5-dihydro-pyrazolo[4,3-c]quinolin-4-one], the half-inhibitory concentration (IC50) was < 1000 nM.

With `Cc1[nH]nc2c1c(=O)n(CCCN)c1ccc(I)cc21` [Compound 208, 5-(3-Amino-propyl)-8-iodo-3-methyl-2,5-dihydro-pyrazolo[4,3-c]quinolin-4-one], the IC50 is < 1000 nM.

Consider `Cc1[nH]nc2c1c(=O)n(CCCO)c1ccc(Cl)cc21` [Compound 209, 8-Chloro-5-(3-hydroxy-propyl)-3-methyl-2,5-dihydro-pyrazolo[4,3-c]quinolin-4-one], for which the 50% inhibitory concentration (IC50) was < 1000 nM.

In the case of `Cc1[nH]nc2c1c(=O)n(CC[C@H]1CCCCN1)c1ccc(Cl)cc21` [Compound 213, 8-Chloro-3-methyl-5-(2R-piperidin-2-yl-ethyl)-2,5-dihydro-pyrazolo[4,3-c]quinolin-4-one], the IC50 is < 1000 nM.

`Cc1[nH]nc2c1c(=O)n(CCC(C)N)c1ccc(Cl)cc21` (centres unmarked) [Compound 216, 5-(3-Amino-butyl)-8-chloro 3-methyl-2,5-dihydro-pyrazolo[4,3-c]quinolin-4-one]: the IC50 was < 1000 nM.

For `Cc1[nH]nc2c1c(=O)n(CCC(O)Cn1ccnc1)c1ccc(Cl)cc21` (centres unmarked) [Compound 252, 8-Chloro-5-(3-hydroxy-4-imidazol-1-yl-butyl)-3-methyl-2,5-dihydro-pyrazolo[4,3-c]quinolin-4-one], the IC50 is < 1000 nM.

For `Cc1[nH]nc2c1c(=O)n(CCCNC(=N)N)c1ccc(Cl)cc21` [Compound 253, N-[3-(8-Chloro-3-methyl-4-oxo-2,4-dihydro-pyrazolo[4,3-c]quinolin-5-yl)-propyl]-guanidine], the half-inhibitory concentration (IC50) is < 1000 nM.

Regarding `Cc1[nH]nc2c1c(=O)n(CCCN)c1ccc(C(=O)O)cc21` [Compound 266, 5-(3-Amino-propyl)-3-methyl-4-oxo-4,5-dihydro-2H-pyrazolo[4,3-c]quinoline-8-carboxylic acid], the 50% inhibitory concentration (IC50) was in the range of 1000 to 10000 nM.

Consider `COC(=O)/C=C/c1ccc2c(c1)c1n[nH]c(C)c1c(=O)n2CCCN` [Compound 267, 3-[5-(3-Amino-propyl)-3-methyl-4-oxo-4,5-dihydro-2H-pyrazolo[4,3-c]quinolin-8-yl]-acrylic acid methyl ester], for which the concentration for half-maximal inhibition (IC50) was < 1000 nM.

In the case of `COC(=O)CCc1ccc2c(c1)c1n[nH]c(C)c1c(=O)n2CCCN` [Compound 268, 3-[5-(3-Amino-propyl)-3-methyl-4-oxo-4,5-dihydro-2H-pyrazolo[4,3-c]quinolin-8-yl]-propionic acid methyl ester], the IC50 is < 1000 nM.

Regarding `Cc1[nH]nc2c1c(=O)n(CCCN)c1ccc(CCC(=O)O)cc21` [Compound 269, 3-[5-(3-Aminopropyl)-3-methyl-4-oxo-4,5-dihydro-2H-pyrazolo[4,3-c]quinolin-8-yl]-propionic acid], the IC50 lay within 1000 to 10000 nM.

Regarding `NCCCn1c(=O)c2c(CCO)[nH]nc2c2cc(Cl)ccc21` [Compound 316, 5-(3-Amino-propyl)-8-chloro-3-(2-hydroxy-ethyl)-2,5-dihydro-pyrazolo[4,3-c]quinolin-4-one], the half-maximal inhibitory concentration (IC50) was < 1000 nM.

`COC(C)Cc1[nH]nc2c1c(=O)n(CCCN)c1ccc(Cl)cc21` (centres unmarked) [Compound 324, 5-(3-Amino-propyl)-8-chloro-3-(2-methoxy-propyl)-2,5-dihydro-pyrazolo[4,3-c]quinolin-4-one] yielded an IC50 of 1000 to 10000 nM.

As to `CC(C)c1[nH]nc2c1c(=O)n(CCCN)c1ccc(Cl)cc21` [Compound 325, 5-(3-Amino-propyl)-8-chloro-3-isopropyl-2,5-dihydro-pyrazolo[4,3-c]quinolin-4-one], the IC50 was < 1000 nM.

The molecule `COC(=O)c1ccc2c3n[nH]c(C)c3c(=O)n(CCCN)c2c1` [Compound 334, 5-(3-Amino-propyl)-3-methyl-4-oxo-4,5-dihydro-2H-pyrazolo[4,3-c]quinoline-7-carboxylic acid methyl ester] registered an IC50 of 1000 to 10000 nM.

Regarding `Cc1[nH]nc2c1c(=O)n(C)c1c(CCCN)cc(Cl)cc21` [Compound 343, 6-(3-Amino-propyl)-8-chloro-3,5-dimethyl-2,5-dihydro-pyrazolo[4,3-c]quinolin-4-one], the half-inhibitory concentration (IC50) lay within 1000 to 10000 nM.

`Cc1[nH]nc2c1c(=O)n(C)c1c(C#CCO)cc(Cl)cc21` [Compound 344, 8-Chloro-6-(3-hydroxy-prop-1-ynyl)-3,5-dimethyl-2,5-dihydro-pyrazolo[4,3-c]quinolin-4-one]: the half-maximal inhibitory concentration (IC50) lay within 1000 to 10000 nM.

Turning to `Cc1[nH]nc2c1c(=O)n(C)c1c(C#CCCN)cc(Cl)cc21` [Compound 345, 6-(4-amino-but-1-ynyl)-8-chloro-3,5-dimethyl-2,5-dihydro-pyrazolo[4,3-c]quinolin-4-one], the concentration for half-maximal inhibition (IC50) is < 1000 nM.

For the molecule `Cc1[nH]nc2c1c(=O)n(CCCN)c1c([N+](=O)[O-])cc(Cl)cc21` [Compound 347, 5-(3-Amino-propyl)-8-chloro-3-methyl-6-nitro-2,5-dihydro-pyrazolo[4,3-c]quinolin-4-one], the IC50 lay within 1000 to 10000 nM.

On to `Cc1[nH]nc2c1c(=O)n(CCCN)c1c(N)cc(Cl)cc21` [Compound 348, 6-Amino-5-(3-amino-propyl)-8-chloro-3-methyl-2,5-dihydro-pyrazolo[4,3-c]quinolin4-one], for which the IC50 was < 1000 nM.

`Cc1[nH]nc2c1c(=O)n(CCCN)c1c(Br)cc(Cl)cc21` [Compound 349, 5-(3-Amino-propyl)-6-bromo-8-chloro-3-methyl 2,5-dihydro-pyrazolo[4,3-c]quinolin-4-one]: the IC50 was < 1000 nM.

Take `Cc1[nH]nc2c1c(=O)n(CCCN)c1ccc(NC(=O)CCN)cc21` [Compound 357, 3-Amino-N-[5-(3-amino-propyl)-3-methyl-4-oxo-4,5-dihydro-2H-pyrazolo[4,3-c]quinolin-8-yl]-propionamide]: the IC50 is < 1000 nM.

Regarding `Cc1[nH]nc2c1c(=O)n(CCCN)c1ccc(-c3ccncc3)cc21` [Compound 358, 5-(3-Amino-propyl)-3-methyl-8-pyridin-4-yl-2,5-dihydro-pyrazolo[4,3-c]quinolin-4-one], the IC50 was < 1000 nM.

Take `C#Cc1ccc2c(c1)c1n[nH]c(CC)c1c(=O)n2CCCN` [Compound 360, 5-(3-Amino-propyl)-3-ethyl-8-ethynyl-2,5-dihydro-pyrazolo[4,3-c]quinolin-4-one]: the IC50 was < 1000 nM.

Turning to `Cc1[nH]nc2c1c(=O)n(CC[C@@H](C)N)c1ccc(Cl)cc21` [Example 217, 5-(3R-Amino-butyl)-8-chloro 3-methyl-2,5-dihydro-pyrazolo[4,3-c]quinolin-4-one], the half-maximal inhibitory concentration (IC50) is < 1000 nM.

In the case of `COCCc1[nH]nc2c1c(=O)n(CCC(C)N)c1ccc(Cl)cc21` (centres unmarked) [Example 219], the concentration for half-maximal inhibition (IC50) is < 1000 nM.

For the molecule `Cc1[nH]nc2c1c(=O)n(C[C@@H](C)CN)c1ccc(Cl)cc21` [Example 220, 5-(3-Amino-2S-methyl-propyl)-8-chloro-3-methyl-2,5-dihydro-pyrazolo[4,3-c]quinolin-4-one], the concentration for half-maximal inhibition (IC50) was < 1000 nM.

In the case of `Cc1[nH]nc2c1c(=O)n(C[C@H](C)CN)c1ccc(Cl)cc21` [Example 221, 5-(3-Amino-2R-methyl-propyl)-8-chloro-3-methyl-2,5-dihydro-pyrazolo[4,3-c]quinolin-4-one], the IC50 was < 1000 nM.

`COCCc1[nH]nc2c1c(=O)n(C[C@@H](C)CN)c1ccc(Cl)cc21` [Example 222, 5-(3-Amino-2S-methyl-propyl)-8-chloro-3-(2-methoxy-ethyl)-2,5-dihydro-pyrazolo[4,3-c]quinolin-4-one]: the IC50 was < 1000 nM.
